According to patent US9695155B2, “Herbicidal substituted pyrimidinyloxy benzene compounds” (E. I. DU PONT DE NEMOURS AND COMPANY, priority 2013, dated 2017):

Assays:
wild oat = experiment: Test C preemergence; format: in vivo, Avena fatua; conditions: for Oat, Wild plant response rating: preemergence, scale 0 (no effect) to 100 (complete control)
Text: (§1) Seeds of plant species selected from blackgrass (Alopecurus myosuroides), Italian ryegrass (Lolium multiflorum), wheat, winter (winter wheat, Triticum aestivum), galium (catchweed bedstraw, Galium aparine), corn (Zea mays), large (Lg) crabgrass (Digitaria sanguinalis), giant foxtail (Setaria faberii), johnsongrass (Sorghum halepense), lambsquarters (Chenopodium album), morningglory (Ipomoea coccinea), yellow nutsedge (Cyperus esculentus), pigweed (Amaranthus retroflexus), ragweed (common ragweed, Ambrosia elatior), soybean (Glycine max), barnyardgrass (Echinochloa crus-galli), oilseed rape (Brassica napus), waterhemp (common waterhemp, Amaranthus rudis), kochia (Kochia scoparia), wild oat (Avena fatua), surinam grass (Brachiaria decumbens), foxtail, green (green foxtail, Setaria viridis), goosegrass (Eleusine indica), bromegrass, downy (downy bromegrass, Bromus tectorum), nightshade (eastern black nightshade, Solanum ptycanthum), cocklebur (common cocklebur, Xanthium strumarium), cupgrass, woolly (woolly cupgrass, Eriochloa villosa), bermudagrass (Cynodon dactylon), sunflower, (common oilseed sunflower, Helianthus annuus), Russian thistle (Salsola kali), and velvetleaf (Abutilon theophrasti) were planted into a blend of loam soil and sand and treated preemergence with test chemicals formulated in a non-phytotoxic solvent mixture which included a surfactant.
(§2) At the same time, plants selected from these crop and weed species and also barley, winter (winter barley, Hordeum vulgare), windgrass (Apera spica-venti), chickweed (common chickweed, Stellaria media), deadnettle (henbit deadnettle, Lamium amplexicaule), and canarygrass (littleseed canarygrass, Phalaris minor) were planted in pots containing Redi-Earth® planting medium (Scotts Company, 14111 Scottslawn Road, Marysville, Ohio 43041) comprising spaghnum peat moss, vermiculite, wetting agent and starter nutrients and treated with postemergence applications of test chemicals formulated in the same manner. Plants ranged in height from 2 to 18 cm (1- to 4-leaf stage) for postemergence treatments. Treated plants and controls were maintained in a greenhouse for 13 to 15 days, after which time all species were compared to controls and visually evaluated. Plant response ratings, summarized in Table C, are based on a scale of 0 to 100 where 0 is no effect and 100 is complete control. A dash (-) response means no test result.

kochia = experiment: Test C preemergence; format: in vivo, Kochia scoparia; conditions: for Kochia plant response rating: preemergence, scale 0 (no effect) to 100 (complete control)
Text: as §1, §2

bromegrass, downy [1] = experiment: Test C postemergence; format: in vivo, Bromus tectorum; conditions: for Plant response rating (0 to 100), Bromegrass, Downy: postemergence; for Plant response rating, Bromegrass, Downy: Postemergence, scale 0 to 100 (0 no effect, 100 complete control)
Text: as §1, §2

goosegrass = experiment: Test C postemergence; format: in vivo, Eleusine indica; conditions: for Plant response rating (0 to 100), Goosegrass: postemergence; for Plant response rating, Goosegrass: Postemergence, scale 0 to 100 (0 no effect, 100 complete control)
Method in brief: (§3)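 Seeds were sown in loam–sand blend and sprayed preemergence, while plants at 1- to 4-leaf stage (2–18 cm) in peat-based medium received postemergence sprays; test chemicals were formulated in a non-phytotoxic solvent with surfactant. After 13–15 days in a greenhouse, injury was rated visually against controls, 0 (no effect) to 100 (complete control).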

windgrass = experiment: Test C postemergence; format: in vivo, Apera spica-venti; conditions: for Plant response rating (0 to 100), Windgrass: postemergence; for Plant response rating, Windgrass: Postemergence, scale 0 to 100 (0 no effect, 100 complete control)
Text: as §1, §2

canarygrass = experiment: Test C postemergence; format: in vivo, Phalaris minor; conditions: for Plant response rating (0 to 100), Canarygrass: postemergence; for Plant response rating, Canarygrass: Postemergence, scale 0 to 100 (0 no effect, 100 complete control)
Text: as §1, §2

foxtail, green = experiment: Test C postemergence; format: in vivo, Setaria viridis; conditions: for Plant response rating (0 to 100), Foxtail, Green: postemergence; for Plant response rating, Foxtail, Green: Postemergence, scale 0 to 100 (0 no effect, 100 complete control)
Text: as §1, §2

cocklebur = experiment: Test C postemergence; format: in vivo, Xanthium strumarium; conditions: for Plant response rating, Cocklebur: Postemergence, scale 0 to 100 (0 no effect, 100 complete control)
Method in brief: as §3

bromegrass, downy [2] = experiment: Test C preemergence; format: in vivo, Bromus tectorum; conditions: for Bromegrass, Downy plant response rating: preemergence, scale 0 (no effect) to 100 (complete control)
Text: as §1, §2

[3] = system: waterhemp_RES1 (ALS & Triazine resistant common waterhemp); experiment: Test E postemergence; format: in vivo, Amaranthus rudis
Method in brief: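 Test chemicals formulated in a non-phytotoxic solvent mixture containing a surfactant were applied preemergence to seeds in silt loam soil or postemergence to plants at the 1- to 4-leaf stage in potting mix. After 14 to 21 days in a greenhouse, injury was visually rated against controls on a 0-100 scale (0 = no effect, 100 = complete control).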

barley, winter = experiment: Test C postemergence; format: in vivo, Hordeum vulgare; conditions: for Plant response rating (0 to 100), Barley: postemergence; for Plant response rating, Barley: Postemergence, scale 0 to 100 (0 no effect, 100 complete control)
Text: as §1, §2

[4] = Preemergence, 31 g ai/ha, scale 0 to 100, 0 no effect, 100 complete control

FC(F)(F)c1cnn(-c2ccccc2Oc2ncc(Cl)cn2)c1 [Compound 16]
Oat, Wild plant response rating (wild oat; 62 g ai/ha): 90 | Oat, Wild plant response rating (wild oat; 125 g ai/ha): 90 | Oat, Wild plant response rating (wild oat; 250 g ai/ha): 90 | Plant response rating, Oat, Wild (wild oat; [4]): 50 | Kochia plant response rating (kochia; 62 g ai/ha): 80 | Kochia plant response rating (kochia; 125 g ai/ha): 85 | Kochia plant response rating (kochia; 250 g ai/ha): 100 | Plant response rating, Kochia (kochia; [4]): 50 | Plant response rating (0 to 100), Bromegrass, Downy (bromegrass, downy [1]; 125 g ai/ha): 5 | Plant response rating (0 to 100), Bromegrass, Downy (bromegrass, downy [1]; 250 g ai/ha): 5 | Plant response rating, Bromegrass, Downy (bromegrass, downy [1]; 31 g ai/ha, 13 to 15 days): 0 | Plant response rating, Bromegrass, Downy (bromegrass, downy [1]; 62 g ai/ha): 5 | Plant response rating (0 to 100), Goosegrass (goosegrass; 125 g ai/ha): 15 | Plant response rating (0 to 100), Goosegrass (goosegrass; 250 g ai/ha): 30 | Plant response rating, Goosegrass (goosegrass; 31 g ai/ha, 13 to 15 days): 0 | Plant response rating, Goosegrass (goosegrass; 62 g ai/ha): 10 | Plant response rating (0 to 100), Windgrass (windgrass; 125 g ai/ha): 50 | Plant response rating (0 to 100), Windgrass (windgrass; 250 g ai/ha): 50 | Plant response rating, Windgrass (windgrass; 31 g ai/ha, 13 to 15 days): 30 | Plant response rating, Windgrass (windgrass; 62 g ai/ha): 40 | Plant response rating (0 to 100), Canarygrass (canarygrass; 125 g ai/ha): 60 | Plant response rating (0 to 100), Canarygrass (canarygrass; 250 g ai/ha): 80 | Plant response rating, Canarygrass (canarygrass; 31 g ai/ha, 13 to 15 days): 10 | Plant response rating, Canarygrass (canarygrass; 62 g ai/ha): 30 | Plant response rating (0 to 100), Foxtail, Green (foxtail, green; 125 g ai/ha): 30 | Plant response rating (0 to 100), Foxtail, Green (foxtail, green; 250 g ai/ha): 100 | Plant response rating, Foxtail, Green (foxtail, green; 31 g ai/ha, 13 to 15 days): 10 | Plant response rating, Foxtail, Green (foxtail, green; 62 g ai/ha): 30 | Plant response rating (0 to 100), Cocklebur (cocklebur; 250 g ai/ha, postemergence): 80 | Plant response rating, Cocklebur (cocklebur; 31 g ai/ha, 13 to 15 days): 50 | Plant response rating, Cocklebur (cocklebur; 62 g ai/ha): 55 | Bromegrass, Downy plant response rating (bromegrass, downy [2]; 62 g ai/ha): 60 | Bromegrass, Downy plant response rating (bromegrass, downy [2]; 125 g ai/ha): 90 | Bromegrass, Downy plant response rating (bromegrass, downy [2]; 250 g ai/ha): 95 | Plant response rating, Bromegrass, Downy (bromegrass, downy [2]; [4]): 30 | Plant response rating, Waterhemp_RES1 ([3]; Postemergence, 31 g ai/ha, scale 0 to 100): 50 | Plant response rating, Waterhemp_RES1 ([3]; Postemergence, 62 g ai/ha, scale 0 to 100): 60 | Plant response rating, Waterhemp_RES1 ([3]; Postemergence, 125 g ai/ha, scale 0 to 100): 75 | Plant response rating, Waterhemp_RES1 ([3]; Postemergence, 250 g ai/ha, scale 0 to 100): 95 | Plant response rating, Waterhemp_RES1 ([3]; postemergence, 16 g ai/ha, scale 0 to 100, 0 no effect, 100 complete control): 50 | Plant response rating (0 to 100), Barley (barley, winter; 125 g ai/ha): 10 | Plant response rating (0 to 100), Barley (barley, winter; 250 g ai/ha): 35 | Plant response rating, Barley (barley, winter; 31 g ai/ha, 13 to 15 days): 0 | Plant response rating, Barley (barley, winter; 62 g ai/ha): 5
